The values below come from ChEMBL document CHEMBL1129696, “5- and 7-oxa trinems: their synthesis and biological evaluation” (1996).

≈ marks a conversion by molar mass, not a printed value.

What all share (format): functional
The subject of experiment [1] is Bacteroides fragilis. Put plainly: In vitro antibacterial activity against Bacteroides fragilis 2017.
The subject of experiment [2] is Clostridium perfringens. Nature of the experiment: In vitro antibacterial activity against Clostridium perfringens 615.
Experiment [3] relates to Enterococcus faecalis. Put plainly: In vitro antibacterial activity against Enterococcus faecalis 850.
For experiment [4], the system named is Escherichia coli. Nature of the experiment: In vitro antibacterial activity agains Escherichia coli 1852.
Experiment [5] relates to Streptococcus pneumoniae. Put plainly: In vitro antibacterial activity against Streptococcus pneumoniae 3512.
The subject of experiment [6] is Staphylococcus aureus. Put plainly: In vitro antibacterial activity against Staphylococcus aureus 853.
The test system of experiment [7] is Escherichia coli. Put plainly: In vitro antibacterial activity against Escherichia coli 1850.
The subject of experiment [8] is Escherichia coli. Put plainly: In vitro antibacterial activity against Escherichia coli 1850.

For the compound `C[C@@H](O)[C@H]1C(=O)N2C(C(=O)[O-])=C3COCC[C@H]3[C@H]12.[K+]`, the MIC in experiment [1] was determined as 0.1 µg/mL; in experiment [2] it was 2 µg/mL; in experiment [3], 32 µg/mL; in experiment [4], 4 µg/mL; in experiment [5], 0.1 µg/mL; in experiment [6], 2 µg/mL. For the same compound, in experiment [7], the MIC worked out at 2 µg/mL.
On to `C[C@@H](O)[C@H]1C(=O)N2C(C(=O)[O-])=C3CCCO[C@@H]3[C@H]12.[K+]`, for which the MIC in experiment [1] stood at 0.1 µg/mL; in experiment [2], 0.06 µg/mL; in experiment [3] it was 1 µg/mL; in experiment [4], 1 µg/mL; in experiment [5], 0.06 µg/mL; in experiment [6], 0.5 µg/mL. The same compound gave a minimal inhibitory concentration (MIC) in experiment [7] of 1 µg/mL.
For `C[C@@H](O)[C@H]1C(=O)N2C(C(=O)[O-])=C3CCCC[C@@H]3[C@H]12.[K+]`, the minimum inhibitory concentration (MIC) was determined as 1 µg/mL in experiment [1]; 0.1 µg/mL in experiment [2]; 8 µg/mL in experiment [3]; 1 µg/mL in experiment [4]; 0.06 µg/mL in experiment [5]; 1 µg/mL in experiment [6]. This compound had an MIC in experiment [7] of 1 µg/mL.
Regarding `C[C@@H](O)[C@H]1C(=O)N2C(C(=O)[O-])=C3COCC[C@@H]3[C@H]12.[K+]`, the minimal inhibitory concentration (MIC) in experiment [1] was 0.2 µg/mL; in experiment [2], 0.5 µg/mL; in experiment [3], 8 µg/mL; in experiment [4] it was 0.5 µg/mL; in experiment [5], 0.06 µg/mL; in experiment [6], 0.5 µg/mL. Moreover, in experiment [7], the MIC worked out at 0.5 µg/mL.
Consider `C[C@@H](O)[C@H]1C(=O)N2C(C(=O)[O-])=C3CCCO[C@H]3[C@H]12.[K+]`, for which the MIC is 0.2 µg/mL in experiment [1]; 1 µg/mL in experiment [2]; 16 µg/mL in experiment [3]; 4 µg/mL in experiment [4]; 0.2 µg/mL in experiment [5]; 1 µg/mL in experiment [6]. Moreover, the MIC in experiment [7] was found to be 2 µg/mL.
With `C[C@@H](O)[C@H]1C(=O)N2C(C(=O)[O-])=C3CCCC[C@H]3[C@H]12.[K+]`, the MIC is 0.5 µg/mL in experiment [1]; 1 µg/mL in experiment [2]; 16 µg/mL in experiment [3]; 2 µg/mL in experiment [8]; 2 µg/mL in experiment [4]; 0.5 µg/mL in experiment [5]. The MIC in experiment [6] came to 1 µg/mL.
For the compound `CO[C@H]1CCC[C@H]2C1=C(C(=O)O)N1C(=O)[C@H]([C@@H](C)O)[C@@H]21` [SANFETRINEM], the MIC is 0.06 µg/mL (≈ 0.213 µM) in experiment [1]; 0.03 µg/mL (≈ 0.107 µM) in experiment [2]; 1 µg/mL (≈ 3.55 µM) in experiment [3]; 0.5 µg/mL (≈ 1.78 µM) in experiment [4]; under 0.01 µg/mL in experiment [5]; 0.2 µg/mL (≈ 0.711 µM) in experiment [6]. In addition, the lowest concentration to inhibit growth in experiment [7] (MIC) was 0.5 µg/mL (≈ 1.78 µM).

Usually MIC stands for the smallest concentration in the dilution series that meets the test's criterion for growth inhibition.
